Key:
[1] = tested on: SYT-SSX protein expressing cells (HS-SY-2, YaFuSS, SYO-1); test: In vitro antitumor activity against SYT-SSX protein expressing cells (summary statement); format: cell-based
Excerpt: In an attempt to solve the above-mentioned problems, the present inventors have considered that, in synovial sarcoma, formation of the aforementioned complex of SYT-SSX protein, a chromatin remodeling-associated protein and histone deacetylase (HDAC)-associated protein enhances histone deacetylase activity, which in turn has an effect on the canceration, development and/or proliferation, of synovial sarcoma, and have conducted intensive studies of the effect of histone deacetylase inhibition on various synovial sarcoma cell strains (HS-SY-2, YaFuSS, SYO-1) that express SYT-SSX protein. […]

[2] = tested on: HTB93 synovial sarcoma cell strain (SW982; not expressing SYT-SSX protein); test: MTT cell growth assay (survival rate), HTB93 synovial sarcoma cell strain; format: cell-based; conditions: for antitumor activity against synovial sarcoma cell strain not expressing SYT-SSX protein: summary statement, HTB93 (SW982)
Description: An SYT-SSX protein non-expressing synovial sarcoma cell line HTB93 (purchased from ATCC: American Type Culture Collection) was cultured in DMEM (Dulbecco's modified Eagle's medium) containing 10% (v/v) fetal bovine serum (FBS), 100 U/ml penicillin and 100 μg/ml streptomycin at 37° C. under 5% CO2 environment. These cells were plated and cultured for 24 hr, detached with 0.25% (w/v) trypsin and recovered. For cell growth ability, an MTT analysis kit (Colorimetric MTT) assay for cell survival and proliferation kit of CHEMICON International, Inc.) was used. Each cell strain was plated in a 96 well microtiter plate at 2×10^3 cell/well, and after culture for 24 hr, exposed to a 0.1% (v/v) dilute ethanol solution of FK228 at a concentration distribution of 0.001 nM, 0.01 nM, 0.1 nM, 0.5 nM, 1 nM, 5 nM, 10 nM, 50 nM and 100 nM, 0.1% (v/v) ethanol as a control and the medium alone as a blank. After exposure for 24 hr, 48 hr, 72 hr and 96 hr, each culture was passed through a 570 nm filter and the absorbance was measured. All were performed with n=4.
For the results, average values of the FK228 addition sample, control and blank were taken, and using numerical values obtained by subtracting a blank value from the value of the FK228 addition sample or control, a percentage corresponding to the ratio of the numerical value of the FK228 addition sample relative to that of the control was taken as survival rate (%).

[3] = tested on: SYO-1 synovial sarcoma cell strain (SYT-SSX protein expressing); test: Tumor volume after subcutaneous implantation of SYO-1 cells in nude mice; format: in vivo, BALB/C/nu/nu nude mice; conditions: for antitumor activity in vivo against SYT-SSX protein expressing cells: summary statement
Description: Inbred male (BALB/C/nu/nu) nude mice were supplied by Charles River Japan, Inc. The animals were all fed and handled according to the Animal Test Guideline, Animal Resources Division, Advanced Science Research Center, Okayama University. FK228 was administered after 10 days from subcutaneous implantation of 10^5 cells each of the SYO-1 cell strain. The tumor volume was assumed by measuring two diameters perpendicular to each other using calipers and from the following formula (tumor volume=⅙π [(d1×d2)^3/2] (wherein d1 and d2 are two perpendicular diameters)). The dose was evaluated by intravenously administering a dilute FK228 solution (50 μl, 10% HCO60 which is polyoxyethylene (60) hydrogenated castor oil, diluted with physiological saline) at 0 mg/kg, 1.6 mg/kg or 3.2 mg/kg to 20 animals, and as a control, a 3.2 mg/kg dilute FK228 solution was intravenously injected to 7 animals free of tumor implantation. The administration was performed 3 times every 4 days, the tumor volume was also measured every 4 days, as well as after completion of the administration.

histone deacetylase = conditions: reported in JP-B-7-64872; Experimental Cell Research (1998) 241, 126-133; cited from earlier work
[4] = tested on: YaFuSS synovial sarcoma cell strain (SYT-SSX protein expressing); test: MTT cell growth assay, YaFuSS synovial sarcoma cell strain; format: cell-based; conditions: YaFuSS cells; FK228 0.1-100 nM; exposure 24, 48, 96 hr; FIG. 2
Excerpt: (§1) An SYT-SSX protein expressing synovial sarcoma cell line HS-SY-2 (established and kindly provided by Dr. Hiroshi Sonobe, Department of Pathology, National Fukuyama Hospital), YaFuSS (established and kindly provided by Dr. Junya Toguchida, Department of Tissue Regeneration, Institute for Frontier Medical Sciences, Kyoto University) and SYO-1 (established and kindly provided by Dr. Akira Kawai, Department of Orthopedics, Faculty of Medicine, Okayama University (now Department of Orthopedics, National Cancer Center)) were cultured in DMEM (Dulbecco's modified Eagle's medium) containing 10% (v/v) fetal bovine serum (FBS), 100 U/ml penicillin and 100 μg/ml streptomycin at 37° C. under 5% CO2 environment. These cells were plated and cultured for 24 hr, detached with 0.25% (w/v) trypsin and recovered. For cell growth ability, an MTT analysis kit (Colorimetric (MTT) assay for cell survival and proliferation kit of CHEMICON International, Inc.) was used. Each cell strain was plated in a 96 well microtiter plate at 10^3 cell/well, and after culture for 24 hr, exposed to a 0.1% (v/v) dilute ethanol solution of FK228 at a concentration distribution of 0.1 nM, 0.2 nM, 1 nM, 50 nM and 100 nM, and 0.1% (v/v) ethanol (Et-OH 0.1% in FIG. 1) as a control. After exposure for 24 hr, 48 hr and 96 hr, each culture was passed through a 570 nm filter and the absorbance was measured. […]

[5] = tested on: SYO-1 synovial sarcoma cell strain (SYT-SSX protein expressing); test: MTT cell growth assay, SYO-1 synovial sarcoma cell strain; format: cell-based; conditions: SYO-1 cells; FK228 0.1-100 nM; exposure 24, 48, 96 hr; FIG. 3
Excerpt: as §1

[6] = tested on: HS-SY-2 synovial sarcoma cell strain (SYT-SSX protein expressing); test: MTT cell growth assay, HS-SY-2 synovial sarcoma cell strain; format: cell-based; conditions: HS-SY-2 cells; FK228 0.1-100 nM; exposure 24, 48, 96 hr; FIG. 1
Excerpt: as §1

SMILES | antitumor activity in vitro against SYT-SSX protein expressing cells [1] | antitumor activity against synovial sarcoma cell strain not expressing SYT-SSX protein [2] | antitumor activity in vivo against SYT-SSX protein expressing cells [3] | histone deacetylase inhibition (histone deacetylase) | in vitro antitumor effect (survival rate) ([2]; HTB93 cells, FK228 0.001-100 nM, exposure 24, 48, 72, 96 hr, FIG. 5) | in vitro antitumor effect [4] | in vitro antitumor effect [5] | in vitro antitumor effect [6] | in vivo antitumor effect (tumor volume) ([3]; SYO-1 subcutaneous implant, i.v. 1.6 or 3.2 mg/kg, 3 times every 4 days, FIG. 4)
CC(/C=C/C(=O)NO)=C\[C@@H](C)C(=O)c1ccc(N(C)C)cc1 [tricostatin A, Trichostatin A, reference compound] | potent antiturnor activity | potent antitumor activity | potent antiturnor activity |  |  |  |  |  | 
C/C=C1\NC(=O)C2CSSCC/C=C/C(CCNC(C(C)C)C(=O)N2)OC(=O)C(C(C)C)NC1=O (stereo not shown) [compound A] |  |  |  | selectively inhibits histone deacetylase |  |  |  |  | 
C/C=C1\NC(=O)[C@H]2CSSCC/C=C/[C@H](CC(=O)N[C@H](C(C)C)C(=O)N2)OC(=O)[C@H](C(C)C)NC1=O [FK228] | potent antiturnor activity | potent antitumor activity | potent antiturnor activity | selectively inhibits histone deacetylase | showed an in vitro antitumor effect | showed an in vitro antitumor effect | showed an in vitro antitumor effect | showed an in vitro antitumor effect | showed an in vivo antitumor effect

From patent publication US20060223747A1, “Therapeutic agent for soft tissue sarcoma” (Fujisawa Pharmaceutical Co. Ltd., priority 2003, published 2006)
